In publication PMC6801448, “The Antioxidant and Antiproliferative Activities of 1,2,3-Triazolyl-L-Ascorbic Acid Derivatives” (International Journal of Molecular Sciences, 2019):
“Also recorded” adds a separate entry of the source.

Experiments:
WI-38 (lung fibroblasts) = test: MTT proliferation assay, WI-38; type: cell-based; settings: Homo sapiens, 72 h, normal lung fibroblasts
Outline: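 The 72 h proliferation test exposed cells, seeded at 5000 per well a day before, to compound concentrations spanning 0.01 μM to 100 μM. Viability was measured by MTT reduction over 3 h with absorbance at 570 nm, and IC50 values were derived by regression of the concentration–growth curves.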

[1] = test system: hydroxylated HIF-1α (Pro564); test: Western blot of hydroxy-HIF-1α in MCF-7 cells; type: cell-based, Human; settings: MCF-7, 6.72 µM, 48 h
Experimental: (§1) Protein lysates were prepared using RIPA buffer containing cocktail of protease and phosphatase inhibitors (Roche, Basel, Switzerland). Amounts of 50 μg of proteins were resolved on 12% SDS polyacrylamide gels using the Mini-protean cell (Bio-Rad, Hercules, CA, USA). The membranes were incubated with primary antibodies raised against hydroxy-HIF-1α (Pro564) (HIF-1α, 1:1000, rabbit mAb, Cell Signaling Technology, NL) and NOS2 (1:500, mouse mAb, SantaCruzBiotechnology, Dallas, TX, USA) at 4 °C overnight. A secondary antibody linked to anti-mouse (1:1000, Dako, Santa Clara, CA, USA) was used. The signal was visualized by the Western Lightening Chemiluminescence Reagent Plus Kit (Perkin Elmer, Massachusetts, MA, USA) on the ImageQuant LAS500 (GE Healthcare, Chicago, IL, USA), and as a loading control, α-tubulin (1:1000, mouse mAb, Sigma, Sigma Aldrich, Darmstadt, Germany) was used. The signal intensities of bands were normalized and compared in Quantity One software (Bio-Rad, Hercules, CA, USA). Differences in protein relative expression status obtained by western blot analysis were analyzed by two-tailed, paired t-tests (p < 0.05) in the Statistica software package (v.12.0).

NOS2 = test: Western blot of NOS2 in MCF-7 cells; type: cell-based, Human; settings: MCF-7, 6.72 µM, 48 h
Experimental: as §1

[2] = design: method as in PMID 20925411; settings: experimental acid dissociation constant; cited from earlier work

melting point [°C] | Structure (SMILES) | IC50 (WI-38 (lung fibroblasts)) [µM] | hydroxylated HIF-1α (Pro564) expression [1] | NOS2 expression (NOS2) | pKa,2 (experimental) [2]
159 to 160 | O=C1O[C@H]([C@@H](O)Cn2cc(-c3ccc(Br)cc3)nn2)C(O)=C1O [Compound 4e, 6-[4-(4-bromophenyl)-1,2,3-triazol-1-yl]-6-deoxy-L-ascorbic acid] | 73.9 | statistically significant increase; also recorded: strongly increased | decreased expression; also recorded: somewhat decreased | –
– | O=C1O[C@H]([C@@H](O)CO)C(O)=C1O [L-ASA, L-ascorbic acid] | – | – | – | 11.4
